Assay results taken from the NIST ThermoML archive (doi:10.1016/j.jct.2018.12.031).
Numbers after ± are expanded uncertainties.

Assay: xn = mol fraction of the nth substance listed
Settings: 100 kPa, Liquid; for speed of sound: Frequency=3 MHz, Linear variable-path acoustic interferometer; for mass density: Pycnometric method

C=C(C)C(=O)OCCCC [butyl 2-methyl-2-propenoate] + N#Cc1ccccc1
Settings	mass density [kg/m3]	speed of sound [m/s]
293.15 K, x2 = 0	895.19 ± 1	1241.7 ± 1.7
293.15 K, x2 = 0.0721	900.73 ± 1	1251.2 ± 1.7
293.15 K, x2 = 0.1507	907.02 ± 1	1262 ± 1.7
293.15 K, x2 = 0.2142	912.32 ± 1	1271.2 ± 1.7
293.15 K, x2 = 0.2876	918.72 ± 1	1282.1 ± 1.7
293.15 K, x2 = 0.3511	924.51 ± 1	1291.9 ± 1.7
293.15 K, x2 = 0.4297	932.05 ± 1	1304.6 ± 1.7
293.15 K, x2 = 0.4985	939.01 ± 1	1316.5 ± 1.7
293.15 K, x2 = 0.5715	946.81 ± 1	1330 ± 1.7
293.15 K, x2 = 0.6465	955.32 ± 1	1344.9 ± 1.7
293.15 K, x2 = 0.7147	963.54 ± 1	1359.7 ± 1.7
293.15 K, x2 = 0.7784	971.67 ± 1	1374.6 ± 1.7
293.15 K, x2 = 0.8558	982.2 ± 1	1394.4 ± 1.7
293.15 K, x2 = 0.9326	993.43 ± 1	1416.2 ± 1.7
298.15 K, x2 = 0	890.48 ± 1	1222.1 ± 1.7
298.15 K, x2 = 0.0721	896.08 ± 1	1231.8 ± 1.7
298.15 K, x2 = 0.1507	902.44 ± 1	1242.8 ± 1.7
298.15 K, x2 = 0.2142	907.79 ± 1	1252 ± 1.7
298.15 K, x2 = 0.2876	914.25 ± 1	1262.8 ± 1.7
298.15 K, x2 = 0.3511	920.1 ± 1	1272.6 ± 1.7
298.15 K, x2 = 0.4297	927.7 ± 1	1285.3 ± 1.7
298.15 K, x2 = 0.4985	934.73 ± 1	1297.1 ± 1.7
298.15 K, x2 = 0.5715	942.6 ± 1	1310.6 ± 1.7
298.15 K, x2 = 0.6465	951.19 ± 1	1325.7 ± 1.7
298.15 K, x2 = 0.7147	959.49 ± 1	1340.5 ± 1.7
298.15 K, x2 = 0.7784	967.7 ± 1	1355.6 ± 1.7
298.15 K, x2 = 0.8558	978.33 ± 1	1375.6 ± 1.7
298.15 K, x2 = 0.9326	989.66 ± 1	1397.6 ± 1.7
303.15 K, x2 = 0	885.78 ± 1	1202.4 ± 1.7
303.15 K, x2 = 0.0721	891.44 ± 1	1212.4 ± 1.7
303.15 K, x2 = 0.1507	897.86 ± 1	1223.6 ± 1.7
303.15 K, x2 = 0.2142	903.26 ± 1	1232.8 ± 1.7
303.15 K, x2 = 0.2876	909.78 ± 1	1243.7 ± 1.7
303.15 K, x2 = 0.3511	915.69 ± 1	1253.4 ± 1.7
303.15 K, x2 = 0.4297	923.35 ± 1	1266.3 ± 1.7
303.15 K, x2 = 0.4985	930.45 ± 1	1278.1 ± 1.7
303.15 K, x2 = 0.5715	938.39 ± 1	1291.6 ± 1.7
303.15 K, x2 = 0.6465	947.06 ± 1	1306.8 ± 1.7
303.15 K, x2 = 0.7147	955.44 ± 1	1321.9 ± 1.7
303.15 K, x2 = 0.7784	963.73 ± 1	1337.2 ± 1.7
303.15 K, x2 = 0.8558	974.46 ± 1	1357.7 ± 1.7
303.15 K, x2 = 0.9326	985.89 ± 1	1379.9 ± 1.7
308.15 K, x2 = 0	881.07 ± 1	1183 ± 1.7
308.15 K, x2 = 0.0721	886.79 ± 1	1193.2 ± 1.7
308.15 K, x2 = 0.1507	893.27 ± 1	1204.6 ± 1.7
308.15 K, x2 = 0.2142	898.72 ± 1	1213.9 ± 1.7
308.15 K, x2 = 0.2876	905.3 ± 1	1225 ± 1.7
308.15 K, x2 = 0.3511	911.26 ± 1	1234.8 ± 1.7
308.15 K, x2 = 0.4297	919 ± 1	1247.7 ± 1.7
308.15 K, x2 = 0.4985	926.16 ± 1	1259.6 ± 1.7
308.15 K, x2 = 0.5715	934.18 ± 1	1273.2 ± 1.7
308.15 K, x2 = 0.6465	942.93 ± 1	1288.5 ± 1.7
308.15 K, x2 = 0.7147	951.39 ± 1	1303.8 ± 1.7
308.15 K, x2 = 0.7784	959.75 ± 1	1319.5 ± 1.7
308.15 K, x2 = 0.8558	970.58 ± 1	1340.4 ± 1.7
308.15 K, x2 = 0.9326	982.12 ± 1	1362.9 ± 1.7
313.15 K, x2 = 0	876.35 ± 1	1163.8 ± 1.7
313.15 K, x2 = 0.0721	882.13 ± 1	1174.3 ± 1.7
313.15 K, x2 = 0.1507	888.68 ± 1	1185.8 ± 1.7
313.15 K, x2 = 0.2142	894.18 ± 1	1195.3 ± 1.7
313.15 K, x2 = 0.2876	900.82 ± 1	1206.5 ± 1.7
313.15 K, x2 = 0.3511	906.83 ± 1	1216.5 ± 1.7
313.15 K, x2 = 0.4297	914.65 ± 1	1229.5 ± 1.7
313.15 K, x2 = 0.4985	921.87 ± 1	1241.5 ± 1.7
313.15 K, x2 = 0.5715	929.96 ± 1	1255.2 ± 1.7
313.15 K, x2 = 0.6465	938.79 ± 1	1270.7 ± 1.7
313.15 K, x2 = 0.7147	947.33 ± 1	1286.3 ± 1.7
313.15 K, x2 = 0.7784	955.77 ± 1	1302.3 ± 1.7
313.15 K, x2 = 0.8558	966.7 ± 1	1323.7 ± 1.7
313.15 K, x2 = 0.9326	978.35 ± 1	1346.9 ± 1.7
318.15 K, x2 = 0	871.64 ± 1	1145.7 ± 1.7
318.15 K, x2 = 0.0721	877.48 ± 1	1156.5 ± 1.6
318.15 K, x2 = 0.1507	884.09 ± 1	1168.2 ± 1.6
318.15 K, x2 = 0.2142	889.64 ± 1	1177.8 ± 1.6
318.15 K, x2 = 0.2876	896.34 ± 1	1189.1 ± 1.6
318.15 K, x2 = 0.3511	902.4 ± 1	1199.1 ± 1.6
318.15 K, x2 = 0.4297	910.29 ± 1	1212.1 ± 1.6
318.15 K, x2 = 0.4985	917.58 ± 1	1224.2 ± 1.6
318.15 K, x2 = 0.5715	925.74 ± 1	1238 ± 1.6
318.15 K, x2 = 0.6465	934.65 ± 1	1253.7 ± 1.6
318.15 K, x2 = 0.7147	943.27 ± 1	1269.6 ± 1.7
318.15 K, x2 = 0.7784	951.79 ± 1	1285.9 ± 1.7
318.15 K, x2 = 0.8558	962.82 ± 1	1307.8 ± 1.7
318.15 K, x2 = 0.9326	974.58 ± 1	1331.5 ± 1.7
